Assay results as given in patent publication US20200207782A1, “CHEMICALLY ACTIVATED WATER-SOLUBLE PRODRUG” (SUMITOMO DAINIPPON PHARMA CO., LTD, priority 2017, published 2020).
Several values for one entry are separate records, joined by “and”; a condition that tells them apart may be missing. Equal entries are not always repeated. Structures can show the parent of a compound that is named as a salt.

Columns and labels:
[1] = Solution stability test (residual ratio and generation of active form in buffers of pH 2.0 to 9.0); format: physicochemical; set-up: Rate of generation of active form after 24 hours in buffer with pH of 7.4: tested at 25 µM; settings: for Residual ratio / Rate of generation of active form after 24 hours in buffer with pH of 7.4: 25° C.; for Residual ratio: 25 umol/L; for Degradation behaviour in buffers (in words): pH 2.0 to 9.0; for Rate of generation of active form after 24 hours in buffer with pH of 7.4: pH 7.4 buffer
Description: The test compounds were incubated at 25° C. at a concentration of 25 umol/L in a buffer prepared to have a pH of 2.0, 3.0, 5.0, 7.4, and 9.0. The compounds were measured by HPLC after 0, 3, 6, 9, 12, and 24 hours.
The buffers used at each pH are the following. • pH 2.0: 50 mmol/L glycine buffer • pH 3.0: 50 mmol/L citrate buffer • pH 5.0: 50 mmol/L citrate buffer • pH 7.4: 50 mmol/L phosphate buffer • pH 9.0: 50 mmol/L glycine buffer
The measurement conditions for HPLC are the following.
The yield of the Example and Reference Example compounds and active forms is calculated with each of the peak area of the Example and Reference Example compounds at 0 minutes and the peak area upon dissolution of the corresponding active form at 100 umol/L as 100%. The yield is denoted in terms of %

physchem = settings: thermodynamic from solid; for solubility at 24 h: pH 2, aqueous buffer
Description: The solubility of the water-soluble prodrugs described in the Examples and the Reference Examples was measured. […] The filtrate was measured by HPLC.

SMILES	Residual ratio ([1]; pH2.0 buffer, 0 hr) [%]	Residual ratio ([1]; pH2.0 buffer, 3 hr) [%]	Residual ratio ([1]; pH2.0 buffer, 6 hr) [%]	Residual ratio ([1]; pH2.0 buffer, 9 hr) [%]	Residual ratio ([1]; pH2.0 buffer, 12 hr) [%]	Residual ratio ([1]; pH2.0 buffer, 24 hr) [%]	Degradation behaviour in buffers (in words) [1]	Residual ratio ([1]; pH3.0 buffer, 0 hr) [%]	Residual ratio ([1]; pH3.0 buffer, 3 hr) [%]	Residual ratio ([1]; pH3.0 buffer, 6 hr) [%]	Residual ratio ([1]; pH3.0 buffer, 9 hr) [%]	Residual ratio ([1]; pH3.0 buffer, 12 hr) [%]	Residual ratio ([1]; pH3.0 buffer, 24 hr) [%]	Residual ratio ([1]; pH5.0 buffer, 0 hr) [%]	Residual ratio ([1]; pH5.0 buffer, 3 hr) [%]	Residual ratio ([1]; pH5.0 buffer, 6 hr) [%]	Residual ratio ([1]; pH5.0 buffer, 9 hr) [%]	Residual ratio ([1]; pH5.0 buffer, 12 hr) [%]	Residual ratio ([1]; pH7.4 buffer, 0 hr) [%]	Residual ratio ([1]; pH7.4 buffer, 3 hr) [%]	other results
NCCCNC(=O)Oc1c(OC(=O)NCCCN)c(-c2ccccc2)c2c(c1-c1ccccc1)OCO2 [Example 6, 4,7-Diphenyl-1,3-benzodioxole-5,6-diyl bis[(3-aminopropyl)carbamate]dihydrochloride]	100	100	100	100	100	100	pH dependent and chemical degradation progressed	100	100	100	100	100	100	100	100	99.8	99.6	99.5	96.8	65.8	Residual ratio ([1]; pH5.0 buffer, 24 hr): 99.5%; Residual ratio ([1]; pH7.4 buffer, 6 hr): 45.2%; Residual ratio ([1]; pH7.4 buffer, 9 hr): 31.4%; Residual ratio ([1]; pH7.4 buffer, 12 hr): 22.2%; Residual ratio ([1]; pH7.4 buffer, 24 hr): 17% and 16.5%; Residual ratio ([1]; pH9.0 buffer, 0 hr): 10.4%; Residual ratio ([1]; pH9.0 buffer, 3 hr): 0.4%; Residual ratio ([1]; pH9.0 buffer, 6 hr): 0.7%; Residual ratio ([1]; pH9.0 buffer, 9 hr): 0.7%; Residual ratio ([1]; pH9.0 buffer, 12 hr): 0.9%; Residual ratio ([1]; pH9.0 buffer, 24 hr): 0.9%; Stability in solution (in words) ([1]; pH of 2.0, 25° C.): very stable; Stability in solution (in words) ([1]; pH of 3.0, 25° C.): very stable; Stability in solution (in words) ([1]; pH of 5.0, 25° C.): very stable; solubility at 24 h (physchem): > 10000 µg/mL
CN1CC[C@H](c2c(OC(=O)N(C)CCN)cc(O)c3c(=O)cc(-c4ccccc4Cl)oc23)[C@H](O)C1 [Example 8, 2-(2-chlorophenyl)-5-hydroxy-8-[(3S,4R)-3-hydroxy-1-methylpiperidin-4-yl]-4-oxo-4H-chromen-7-yl (2-aminoethyl) methylcarbamate ditrifluoroacetate]	100	100	100	100	100	100	pH dependent and chemical degradation progressed	100	100	100	100	100	100	100	98.2	96.1	94.4	92.4	76.4	0.1	Residual ratio ([1]; pH5.0 buffer, 24 hr): 85% and 85.2%; Residual ratio ([1]; pH7.4 buffer, 6 hr): 0.0%; Residual ratio ([1]; pH7.4 buffer, 9 hr): 0.1%; Residual ratio ([1]; pH7.4 buffer, 12 hr): 0.2%; Residual ratio ([1]; pH7.4 buffer, 24 hr): 0.5%; Rate of generation of active form after 24 hours in buffer with pH of 7.4 [1]: 88%; Residual ratio ([1]; pH9.0 buffer, 0 hr): 9.7%; Residual ratio ([1]; pH9.0 buffer, 3 hr): 0.2%; Residual ratio ([1]; pH9.0 buffer, 6 hr): 0.2%; Residual ratio ([1]; pH9.0 buffer, 9 hr): 0.1%; Residual ratio ([1]; pH9.0 buffer, 12 hr): 0.1%; Residual ratio ([1]; pH9.0 buffer, 24 hr): 0.0%; Stability in solution (in words) ([1]; pH of 2.0, 25° C.): sufficient stability; Stability in solution (in words) ([1]; pH of 3.0, 25° C.): sufficient stability; solubility (physchem; pH 5, aqueous buffer): > 10000 µg/mL
C[C@H]1COc2c1c(OC(=O)NCCNCC(=O)O)c(OC(=O)NCCNCC(=O)O)c1c3c(ccc21)C(C)(C)CCC3 [Example 12, 2,2′-{[(1R)-1,6,6-trimethyl-1,2,6,7,8,9-hexahydrophenanthro [1,2-b]furan-10,11-diyl]bis(oxycarbonylazanediylethane-2,1-diylazanediyl)}diacetic acid dihydrochloride]	100	99.4	98.9	98.7	98.5	98.5	pH dependent and chemical degradation progressed	100	99.2	98.9	98.6	98.4	98.3	100	99.1	98.1	97.1	96.4	100	9.8	Residual ratio ([1]; pH5.0 buffer, 24 hr, dihydrochloride): 93% and 93.3%; Residual ratio ([1]; pH7.4 buffer, 6 hr): 1.7%; Residual ratio ([1]; pH7.4 buffer, 9 hr): 1.4%; Residual ratio ([1]; pH7.4 buffer, 12 hr): 0%; Residual ratio ([1]; pH7.4 buffer, 24 hr): 0%; Rate of generation of active form after 24 hours in buffer with pH of 7.4 [1]: 11%; Stability in solution (in words) ([1]; pH of 2.0, 25° C.): stable; Stability in solution (in words) ([1]; pH of 3.0, 25° C.): stable; solubility at 24 h (physchem): > 10000 µg/mL
